# Structures can show the parent of a compound that is named as a salt.
# Tests used:
# human EHMT2 913-1193 = biological target: T1, human EHMT2 913-1193 (Homo sapiens, UniProt Q96KQ7); test: EHMT2 enzyme assay on histone peptide substrate (EHMT2 PEP); assay type: biochemical; conditions: Table II; read-out: EHMT2 PEP (IC50 μM)
# T1 construct: recombinant purified human EHMT2 913-1193, Viva; purchased Viva
# T1 sequence (Q96KQ7 913-1193): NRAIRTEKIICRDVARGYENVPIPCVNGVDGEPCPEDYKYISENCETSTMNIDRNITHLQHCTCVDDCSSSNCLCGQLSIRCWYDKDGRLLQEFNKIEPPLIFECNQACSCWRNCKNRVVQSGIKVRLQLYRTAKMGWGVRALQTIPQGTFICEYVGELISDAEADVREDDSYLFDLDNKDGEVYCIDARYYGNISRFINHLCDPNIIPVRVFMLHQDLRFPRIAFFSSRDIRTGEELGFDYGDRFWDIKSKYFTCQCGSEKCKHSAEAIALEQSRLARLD
# Method in brief: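 Compounds (10-point, 3-fold dilutions, top 50 μM final, 2% DMSO) preincubated 30 min with 0.031 nM EHMT2 in 20 mM Bicine pH 7.5, 0.002% Tween 20, 0.005% gelatin, 1 mM TCEP. Biotinylated histone peptide methylated with ^3H-SAM 60 min at room temperature. Quenched with unlabeled SAM; product captured on streptavidin Flashplate, scintillation counted.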
# EHMT1 = biological target: T2, EHMT1 (Homo sapiens, UniProt Q9H9B1); test: EHMT1 enzyme assay on peptide substrate (EHMT1 PEP); assay type: biochemical; conditions: Table II; read-out: EHMT1 PEP (IC50 μM)
# T2 sequence (Q9H9B1 1-1298): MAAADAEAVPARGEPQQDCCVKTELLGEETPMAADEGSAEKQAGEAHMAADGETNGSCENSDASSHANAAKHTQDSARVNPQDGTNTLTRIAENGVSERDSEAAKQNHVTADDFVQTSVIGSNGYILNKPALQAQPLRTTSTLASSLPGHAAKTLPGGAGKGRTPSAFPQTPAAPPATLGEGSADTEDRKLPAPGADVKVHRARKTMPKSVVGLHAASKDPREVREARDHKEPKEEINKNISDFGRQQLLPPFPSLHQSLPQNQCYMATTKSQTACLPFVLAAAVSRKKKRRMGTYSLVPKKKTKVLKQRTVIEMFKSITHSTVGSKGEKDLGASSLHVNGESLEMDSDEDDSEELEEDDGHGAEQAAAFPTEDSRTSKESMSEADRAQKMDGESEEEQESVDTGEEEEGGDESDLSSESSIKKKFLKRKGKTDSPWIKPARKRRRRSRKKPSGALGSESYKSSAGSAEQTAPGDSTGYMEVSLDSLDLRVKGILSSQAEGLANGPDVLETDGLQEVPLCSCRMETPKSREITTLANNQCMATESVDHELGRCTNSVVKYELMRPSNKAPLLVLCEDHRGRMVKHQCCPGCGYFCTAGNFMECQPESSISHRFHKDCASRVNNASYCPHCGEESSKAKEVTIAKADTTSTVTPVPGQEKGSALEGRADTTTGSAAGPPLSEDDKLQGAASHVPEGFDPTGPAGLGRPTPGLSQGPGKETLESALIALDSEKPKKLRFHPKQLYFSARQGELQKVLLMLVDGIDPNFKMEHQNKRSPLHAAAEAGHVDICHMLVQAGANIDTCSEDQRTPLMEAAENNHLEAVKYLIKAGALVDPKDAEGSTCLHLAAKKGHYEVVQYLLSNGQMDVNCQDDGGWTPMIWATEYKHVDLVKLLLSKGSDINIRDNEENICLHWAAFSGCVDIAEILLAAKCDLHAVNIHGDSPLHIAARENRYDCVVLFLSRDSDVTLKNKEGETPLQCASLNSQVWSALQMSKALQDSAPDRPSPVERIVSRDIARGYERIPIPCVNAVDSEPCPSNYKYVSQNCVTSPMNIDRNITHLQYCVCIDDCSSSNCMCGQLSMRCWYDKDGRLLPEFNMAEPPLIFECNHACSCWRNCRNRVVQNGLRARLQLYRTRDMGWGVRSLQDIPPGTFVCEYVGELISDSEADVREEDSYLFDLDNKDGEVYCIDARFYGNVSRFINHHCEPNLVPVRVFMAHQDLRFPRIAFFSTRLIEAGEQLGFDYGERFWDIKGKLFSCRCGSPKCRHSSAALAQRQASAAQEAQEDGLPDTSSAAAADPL
IC50 (human EHMT2 913-1193) [µM],IC50 (EHMT1) [µM],Compound
< 0.1,0.1 to 1,"COc1ccc(Nc2nccc(NC(C)(C)C)n2)cc1OCCCN1CCCC1 [Compound 6, N^4-(tert-butyl)-N^2-(4-methoxy-3-(3-(pyrrolidin-1-yl)propoxy)phenyl)pyrimidine-2,4-diamine]"
< 0.1,< 0.1,"COc1ccc(Nc2ccnc(NCC3CCNCC3)n2)cc1OCCCN1CCCC1 [Compound 7, 4-N-[4-methoxy-3-[3-(pyrrolidin-1-yl)propoxy]phenyl]-2-N-(piperidin-4-ylmethyl)pyrimidine-2,4-diamine hydrochloride]"
0.1 to 1,0.1 to 1,"CC(=O)N1CCC(CNc2ccnc(Nc3ccc(Cl)c(OCCCN4CCCC4)c3)n2)CC1 [Compound 8, 1-(4-(((2-((4-chloro-3-(3-(pyrrolidin-1-yl)propoxy)phenyl)amino)pyrimidin-4-yl)amino)methyl)piperidin-1-yl)ethan-1-one]"
1 to 10,> 10,"CNC(=O)c1cnc(Nc2ccc(OC)c(OCCCN3CCCC3)c2)nc1 [Compound 9, 2-((4-methoxy-3-(3-(pyrrolidin-1-yl)propoxy)phenyl)amino)-N-methylpyrimidine-5-carboxamide]"
< 0.1,0.1 to 1,"COc1ccc(Nc2cc(NCC3CCNCC3)ccn2)cc1OCCCN1CCCC1 [Compound 10, N^2-(4-methoxy-3-(3-(pyrrolidin-1-yl)propoxy)phenyl)-N^4-(piperidin-4-ylmethyl)pyridine-2,4-diamine]"
1 to 10,1 to 10,"COc1cnc(Nc2ccnc(CNC3CCOCC3)c2)cc1OCCCN1CCCC1 [Compound 12, 5-methoxy-4-(3-(pyrrolidin-1-yl)propoxy)-N-(2-(((tetrahydro-2H-pyran-4-yl)amino)methyl)pyridin-4-yl)pyridin-2-amine]"
> 10,> 10,"COc1ccc(Nc2ccnc(N(C)CC3CCN(C(C)=O)CC3)c2)cc1OCCCN1CCCC1 [Compound 13, 1-(4-(((4-((4-methoxy-3-(3-(pyrrolidin-1-yl)propoxy)phenyl)amino)pyridin-2-yl)(methyl)amino)methyl)piperidin-1-yl)ethan-1-one]"
> 10,> 10,"COc1ccc(Nc2nccc(OCC3CCN(C(C)=O)CC3)n2)cc1OCCCN1CCCC1 [Compound 14, 1-(4-(((2-((4-methoxy-3-(3-(pyrrolidin-1-yl)propoxy)phenyl)amino)pyrimidin-4-yl)oxy)methyl)piperidin-1-yl)ethan-1-one]"
< 0.1,< 0.1,"COc1ccc(Nc2nccc(NCC3CCNCC3)n2)cc1OCC(O)CN1CCCC1 (stereo not shown) [Compound 15, 1-(2-methoxy-5-((4-((piperidin-4-ylmethyl)amino)pyrimidin-2-yl)amino)phenoxy)-3-(pyrrolidin-1-yl)propan-2-ol]"
0.1 to 1,0.1 to 1,COc1ccc(Nc2nc(NCC3CCNCC3)cc(N3CCCC3)n2)cc1OCCCN1CCCC1 [Compound 103]
> 10,> 10,COc1ccc(Nc2cc(CNC3CCNCC3)n(C)n2)cc1OCCCN1CCCC1 [Compound 126]
> 10,> 10,COc1ccc(Nc2cc(CNC3CCOCC3)n(C)n2)cc1OCCCN1CCCC1 [Compound 127]
> 10,> 10,COc1ccc(Nc2nccc(N3CCc4[nH]ncc4C3)n2)cc1OCCCN1CCCC1 [Compound 128]
> 10,> 10,COc1ccc(Nc2nccc(-c3c(C)n[nH]c3C)n2)cc1OCCCN1CCCC1 [Compound 129]
> 10,> 10,COc1ccc(Nc2nccc(-c3c(C)noc3C)n2)cc1OCCCN1CCCC1 [Compound 130]
> 10,> 10,COc1ccc(Nc2nccc(-c3c[nH]nc3C)n2)cc1OCCCN1CCCC1 [Compound 131]
> 10,> 10,COc1ccc(Nc2nccc(N3CCN(C)C(=O)C3)n2)cc1OCCCN1CCCC1 [Compound 132]
1 to 10,> 10,COc1ccc(Nc2nccc(N3CCCNC(=O)C3)n2)cc1OCCCN1CCCC1 [Compound 133]
> 10,> 10,COc1ccc(Nc2nccc(N3CCc4nc[nH]c(=O)c4C3)n2)cc1OCCCN1CCCC1 [Compound 134]
1 to 10,1 to 10,COc1ccc(Nc2nccc(N(C)Cc3cccnc3)n2)cc1OCCCN1CCCC1 [Compound 135]
1 to 10,1 to 10,COc1ccc(Nc2nccc(N(C)Cc3ccccn3)n2)cc1OCCCN1CCCC1 [Compound 136]

IC50 (human EHMT2 913-1193) [µM],IC50 (EHMT1) [µM],Compound
1 to 10,1 to 10,COc1ccc(Nc2nccc(NC3COC3)n2)cc1OCCCN1CCCC1 [Compound 137]
1 to 10,> 10,COc1ccc(Nc2nccc(N3CCCN(C(C)=O)CC3)n2)cc1OCCCN1CCCC1 [Compound 138]
> 10,> 10,COc1ccc(Nc2nccc(N3CCN(C(C)=O)CC3)n2)cc1OCCCN1CCCC1 [Compound 139]
1 to 10,1 to 10,COc1ccc(Nc2nccc(N(C)CCCO)n2)cc1OCCCN1CCCC1 [Compound 140]
> 10,> 10,COc1ccc(Nc2nccc(N3CCC(C)(O)CC3)n2)cc1OCCCN1CCCC1 [Compound 141]
1 to 10,1 to 10,COc1ccc(Nc2nccc(N(C)C3CCOCC3)n2)cc1OCCCN1CCCC1 [Compound 142]
1 to 10,1 to 10,COCCCN(C)c1ccnc(Nc2ccc(OC)c(OCCCN3CCCC3)c2)n1 [Compound 143]
> 10,> 10,COc1ccc(Nc2nccc(CNC(C)=O)n2)cc1OCCCN1CCCC1 [Compound 144]
1 to 10,1 to 10,CC(=O)N1CCC(CNc2ccnc(Nc3ccc(C)c(OCCCN4CCCC4)c3)n2)CC1 [Compound 145]
> 10,> 10,COc1ccc(Nc2nccc(N(C)CC3CCOCC3)n2)cc1OCCCN1CCCC1 [Compound 146]
1 to 10,1 to 10,COc1ccc(Nc2nccc(N3CCC(C(C)(C)O)CC3)n2)cc1OCCCN1CCCC1 [Compound 147]
1 to 10,> 10,COc1ccc(Nc2nccc(N3CCC(O)CC3)n2)cc1OCCCN1CCCC1 [Compound 148]
> 10,> 10,COc1ccc(Nc2nccc(N3CCC(OC)CC3)n2)cc1OCCCN1CCCC1 [Compound 149]
0.1 to 1,1 to 10,COc1ccc(Nc2nccc(N(C)CCO)n2)cc1OCCCN1CCCC1 [Compound 150]
> 10,> 10,COc1ccc(Nc2nccc(N3CCCOCC3)n2)cc1OCCCN1CCCC1 [Compound 151]
1 to 10,1 to 10,COc1ccc(Nc2nccc(NC3CCS(=O)(=O)CC3)n2)cc1OCCCN1CCCC1 [Compound 152]
1 to 10,1 to 10,COc1ccc(Nc2nccc(N3CCC(C(N)=O)CC3)n2)cc1OCCCN1CCCC1 [Compound 153]
1 to 10,> 10,COc1ccc(Nc2nccc(N3CCNc4ccccc4C3)n2)cc1OCCCN1CCCC1 [Compound 154]
1 to 10,> 10,COc1ccc(Nc2nccc(N3CCc4cn[nH]c4C3)n2)cc1OCCCN1CCCC1 [Compound 155]
1 to 10,1 to 10,COc1ccc(Nc2nccc(N3CCc4ncncc4C3)n2)cc1OCCCN1CCCC1 [Compound 156]
